Read-outs that look alike come from different tables or passages of the source.
Experiments:
PmDAP IV [1] = target: T1, PmDAP IV (Pseudoxanthomonas mexicana, UniProt Q6F3I7); experiment: biochemical
T1 construct: gene dap4; M12I lies in the removed signal; no tag; 723 residues, 82-kDa; homodimer; crystal model Ala22-Pro745
Description: Inhibitor sensitivities of PmDAP IV and human DPP IV Gliptins and diprotin A were purchased from NAMIKI SHOJI Co., Ltd. (Tokyo, Japan) and Peptide Institute, Inc. (Osaka, Japan), respectively. Half-maximal inhibitory concentration (IC50) values were determined by fitting to a sigmoid curve (4-parameter logistic curve) using ImageJ[73]. […] Inhibitor concentrations for PmDAP IV were 0.78, 1.56, 3.13, 6.25, 12.5, 25, 50 and 100 µM, and those for human DPP IV were 0.78, 1.56, 3.13, 6.25, 12.5, 25, 50 and 100 nM. Standard deviations were calculated from three independent experiments. Fluorescence intensity was measured with excitation at 355 nm and emission at 460 nm using an Infinite 200 PRO microplate reader. Inhibition constants (Ki) were calculated using the Cheng-Prusoff equation[74]. Arg106 of PmDAP IV, which is involved in the recognition of the carbonyl group of the P2 residue of the substrate peptide, was mutated to Ala or Lys. The mutants were expressed and purified using the method described above for wild-type PmDAP IV. Recombinant human DPP IV was purchased from ATGen Co., Ltd. (Los Angeles, USA). Kinetic parameters were determined by fitting the experimental data to the Michaelis–Menten equation using Excel Solver (Microsoft) by nonlinear least squares fitting for different concentrations (0.78, 1.56, 3.13, 6.25, 12.5, 25, 50 and 100 µM) of glycyl-L-proline 4-methylcoumaryl-7-amide (Gly-Pro-MCA, Peptide Institute) as a substrate. The enzyme reaction was performed in a reaction buffer containing 50 mM sodium phosphate buffer pH 8.0, 5 mM EDTA and 0.005% Tween 20 at 298 K for 20 min, and standard deviations were calculated from three independent experiments. The fluorescence intensity of the released MCA was measured with excitation at 355 nm and emission at 460 nm using an Infinite 200 PRO microplate reader (TECAN).
Target sequence in this assay (Q6F3I7 22-745 limits assumed): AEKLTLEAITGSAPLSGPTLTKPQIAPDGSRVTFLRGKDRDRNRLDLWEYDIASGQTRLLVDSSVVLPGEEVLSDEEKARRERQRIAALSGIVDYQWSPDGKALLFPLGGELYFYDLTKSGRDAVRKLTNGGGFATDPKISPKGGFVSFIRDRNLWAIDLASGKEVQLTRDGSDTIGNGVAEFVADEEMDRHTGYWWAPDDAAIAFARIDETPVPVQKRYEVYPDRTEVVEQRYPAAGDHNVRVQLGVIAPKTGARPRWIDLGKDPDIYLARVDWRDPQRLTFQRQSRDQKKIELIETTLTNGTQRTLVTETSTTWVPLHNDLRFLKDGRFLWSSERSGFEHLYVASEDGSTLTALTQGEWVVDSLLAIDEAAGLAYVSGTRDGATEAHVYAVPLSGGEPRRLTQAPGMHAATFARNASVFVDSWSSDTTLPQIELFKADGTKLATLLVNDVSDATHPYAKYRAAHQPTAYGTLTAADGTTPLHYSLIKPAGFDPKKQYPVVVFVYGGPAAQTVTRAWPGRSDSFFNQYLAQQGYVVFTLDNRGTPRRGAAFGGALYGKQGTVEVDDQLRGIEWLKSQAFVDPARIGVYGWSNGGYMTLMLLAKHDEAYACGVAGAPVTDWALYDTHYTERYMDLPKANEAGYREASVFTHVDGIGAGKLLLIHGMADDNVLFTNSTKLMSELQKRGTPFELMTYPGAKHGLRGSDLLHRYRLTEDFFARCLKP

PmDAP IV [2] = target: T1, PmDAP IV; experiment: Gly-Pro-MCA fluorescence hydrolysis inhibition; Ki by Cheng-Prusoff; type: biochemical
Source text: Gly-Pro-MCA fluorescence hydrolysis inhibition; Ki by Cheng-Prusoff on PmDAP IV
Target sequence in this assay (Q6F3I7 22-745): as the sequence (Q6F3I7 22-745 limits assumed) above

Compound | IC50 (PmDAP IV [1]) | Ki (PmDAP IV [2]; read-out: PmDAP IV / Ki) | Ki (PmDAP IV [2])
CC#CCn1c(N2CCC[C@@H](N)C2)nc2c1c(=O)n(Cc1nc(C)c3ccccc3n1)c(=O)n2C [Linagliptin] | > 100 µM | 30 ± 1.16 µM | 
CS(=O)(=O)n1cc2c(n1)CN([C@H]1CO[C@H](c3cc(F)ccc3F)[C@@H](N)C1)C2 [Omarigliptin] | > 100 µM | 23.8 ± 3.8 µM | 
Cc1cc(N2CCN([C@@H]3CN[C@H](C(=O)N4CCSC4)C3)CC2)n(-c2ccccc2)n1 [Teneligliptin] |  | 2.34 ± 0.09 µM | 
N#C[C@@H]1CCCN1C(=O)CNC12CC3CC(CC(O)(C3)C1)C2 [Vildagliptin] | 18.8 ± 2.4 µM |  | 3.07 ± 0.39 µM

Next, values leading:

IC50 (PmDAP IV [1]) | Ki (PmDAP IV [2]; read-out: PmDAP IV / Ki) | Ki (PmDAP IV [2]) | Compound
24.5 ± 0.4 µM | 3.99 ± 0.07 µM |  | Cc1cc2ncc(C(=O)NCC(C)(C)NCC(=O)N3CCC[C@H]3C#N)cn2n1 [Anagliptin]
11.1 ± 0.8 µM |  | 1.85 ± 0.13 µM | N#C[C@@H]1C[C@@H]2C[C@@H]2N1C(=O)[C@@H](N)C12CC3CC(CC(O)(C3)C1)C2 [Saxagliptin]
24.6 ± 3.6 µM |  | 4 ± 0.59 µM | N[C@@H](CC(=O)N1CCn2c(nnc2C(F)(F)F)C1)Cc1cc(F)c(F)cc1F [Sitagliptin]
> 100 µM |  |  | Cn1c(=O)cc(N2CCC[C@@H](N)C2)n(Cc2cc(F)ccc2C#N)c1=O [Trelagliptin]

— publication PMC5807507, “Crystal structures of a bacterial dipeptidyl peptidase IV reveal a novel substrate recognition mechanism distinct from that of mammalian orthologues” (Scientific Reports, 2018)
